system: LNCaP cells; test: LNCaP cell viability assay (MTS); assay type: cell-based; conditions: Homo sapiens, LNCaP, 48 h, LNCaP cell line
Experimental: LNCaP cell line was used for the cell viability assay. LNCaP cells were plated in 96-well plates at a density of 5000 cells per well. After 24 hours of plating, the cells were treated with increasing doses of compound (e.g., compounds 1-269) ranging from 1 μM to 80 μM. Relative cell numbers were analyzed after 48 hours using 3-(4,5-dimethylthiazol-2-yl)-5-(3-carboxymethoxyphenyl)-2-(4-sulfophenyl)-2H-tetrazolium (MTS) assay (Promega) according to the manufacturer's instructions.
The cell viability data was analyzed with GraphPad Prism software. The values were log transformed and analyzed with non-linear regression (curve-fit) using log(inhibitor) vs. response-variable slope (four parameters) and constraining the bottom to equal zero. Unless otherwise indicated, the GI50 values provided in Table 113 correspond to the LNCaP cell viability assays.

Row | SMILES | GI50 [µM]
1 | CN(C)CC(NS(=O)(=O)c1ccc(Cl)c(F)c1)c1ccc(Cl)c(Cl)c1 (stereo not shown) [Compound 217, 4-chloro-N-(1-(3,4-dichlorophenyl)-2-(dimethylamino)ethyl)-3-fluorobenzenesulfonamide] | 49.5
2 | Cc1ccc(S(=O)(=O)NC(CN(C)C)c2ccc(Cl)c(Cl)c2)cc1 (stereo not shown) [Compound 133, N-(1-(3,4-dichlorophenyl)-2-(dimethylamino)ethyl)-4-methylbenzenesulfonamide] | 51.8
3 | CN(C)CC(NS(=O)(=O)c1ccc(Oc2ccccn2)cc1)c1ccc(Cl)c(Cl)c1 (stereo not shown) [Compound 211, N-(1-(3,4-dichlorophenyl)-2-(dimethylamino)ethyl)-4-(pyridin-2-yloxy)benzenesulfonamide] | 75
4 | CN(C)CC(NS(=O)(=O)c1ccc(OC(F)(F)F)cc1)c1ccc(Cl)cc1 (single isomer, unassigned) [Compound 179, N-(1-(4-chlorophenyl)-2-(dimethylamino)ethyl)-4-(trifluoromethoxy)benzenesulfonamide] | 43.1
5 | CN(C)CC(NS(=O)(=O)c1cccc(C(F)(F)F)c1)c1ccc(Cl)c(Cl)c1 (stereo not shown) [Compound 162, N-(1-(3,4-dichlorophenyl)-2-(dimethylamino)ethyl)-3-(trifluoromethyl)benzenesulfonamide] | 52.7
6 | CCOC(=O)CC(NS(=O)(=O)c1ccc(OC(F)(F)F)cc1)c1cccc(Br)c1 (stereo not shown) [Compound 46, Ethyl 3-(3-bromophenyl)-3-((4-(trifluoromethoxy)phenyl)sulfonamido)propanoate] | 49
7 | CC(C)c1ccc(C(CC(=O)O)NS(=O)(=O)c2ccc(OC(F)(F)F)cc2)cc1 (stereo not shown) [Compound 113, 3-(4-isopropylphenyl)-3-((4-(trifluoromethoxy)phenyl)sulfonamido)propanoic acid] | 66
8 | CN(Cc1ccccc1Br)C(=O)CCNS(=O)(=O)c1ccc(OC(F)(F)F)cc1 [Compound 48, N-(2-bromobenzyl)-N-methyl-3-((4-(trifluoromethoxy)phenyl)sulfonamido)propenamide] | 43
9 | CN(C)CC(NS(=O)(=O)c1ccc(C(F)(F)F)c([N+](=O)[O-])c1)c1ccc(Cl)c(Cl)c1 (stereo not shown) [Compound 266, N-(1-(3,4-dichlorophenyl)-2-(dimethylamino)ethyl)-3-nitro-4-(trifluoromethyl)benzenesulfonamide] | 41.9
10 | CC(C)CCOc1ccccc1CCNS(=O)(=O)c1ccc(OC(F)(F)F)cc1 [Compound 55, N-(2-(isopentyloxy)phenethyl)-4-(trifluoromethoxy)benzenesulfonamide] | 57
11 | O=S(=O)(NC(CN1CCNCC1)c1ccc(Cl)cc1)c1ccc(OC(F)(F)F)nc1 (stereo not shown) [Compound 259, N-(1-(4-chlorophenyl)-2-(piperazin-1-yl)ethyl)-6-(trifluoromethoxy)pyridine-3-sulfonamide] | 48.8
12 | CCCC(NS(=O)(=O)c1ccc(OC(F)(F)F)cc1)C(=O)N(C)C1CCCCCC1 (stereo not shown) [Compound 4, N-cycloheptyl-N-methyl-2-((4-(trifluoromethoxy)phenyl)sulfonamido)pentanamide] | 54
13 | CC(C)(C)OC(=O)NC[C@@H](NS(=O)(=O)c1ccc(OC(F)(F)F)cc1)c1ccccc1 [Compound 115, tert-butyl (S)-(2-phenyl-2-((4-(trifluoromethoxy)phenyl)sulfonamido)ethyl)carbamate] | 51.6
14 | CCCOC1CCN(CC(NS(=O)(=O)c2ccc(OC(F)(F)F)cc2)c2ccccc2)CC1 (stereo not shown) [Compound 118, N-(1-phenyl-2-(4-propoxypiperidin-1-yl)ethyl)-4-(trifluoromethoxy)benzenesulfonamide] | 42.4
15 | CN(C)CC(NS(=N)(=O)c1ccc(OC(F)(F)F)cc1)c1ccc(Cl)c(Cl)c1 (single isomer, unassigned) [Compound 165a, N-(1-(3,4-dichlorophenyl)-2-(dimethylamino)ethyl)-4-(trifluoromethoxy)benzenesulfonimidamide] | 46.3

Other lines, results leading:

Row | GI50 [µM] | SMILES
16 | 40.2 | COc1ccc(OC)c(CCCNS(=O)(=O)c2ccc(OC(F)(F)F)cc2)c1 [Compound 27, N-(3-(2,5-dimethoxyphenyl)propyl)-4-(trifluoromethoxy)benzenesulfonamide]
17 | 38 | O=S(=O)(NCC1(CCOCc2ccccc2)CC1)c1ccc(OC(F)(F)F)cc1 [Compound 83, N-((1-(2-(benzyloxy)ethyl)cyclopropyl)methyl)-4-(trifluoromethoxy)benzenesulfonamide]
18 | 37.3 | O=S(=O)(NC(c1cccc(Cl)c1)C1CCCC1)c1ccc(OC(F)(F)F)cc1 (stereo not shown) [Compound 41, N-((3-chlorophenyl)(cyclopentyl)methyl)-4-(trifluoromethoxy)benzenesulfonamide]
19 | 36 | CCCCN(CCCNS(=O)(=O)c1ccc(OC(F)(F)F)cc1)Cc1ccccc1 [Compound 64, N-(3-(benzyl(butyl)amino)propyl)-4-(trifluoromethoxy)benzenesulfonamide]
20 | 34.6 | CCc1ccc(S(=O)(=O)NC(CN(C)C)c2ccc(Cl)c(Cl)c2)cc1 (stereo not shown) [Compound 212, N-(1-(3,4-dichlorophenyl)-2-(dimethylamino)ethyl)-4-ethylbenzenesulfonamide]
21 | 33 | CCCCN(CCNS(=O)(=O)c1ccc(OC(F)(F)F)cc1)Cc1cccc(Cl)c1 [Compound 54, N-(2-(butyl(3-chlorobenzyl)amino)ethyl)-4-(trifluoromethoxy)benzenesulfonamide]
22 | 31.1 | O=[N+]([O-])c1cc(S(=O)(=O)NCC2(c3ccc(Cl)c(Cl)c3)CC2)ccc1OC(F)(F)F [Compound 232, N-((1-(3,4-dichlorophenyl)cyclopropyl)methyl)-3-nitro-4-(trifluoromethoxy)benzenesulfonamide]
23 | 29.1 | O=S(=O)(NC(c1cccc(C(F)(F)F)c1)C1CCCCC1)c1ccc(OC(F)(F)F)cc1 (stereo not shown) [Compound 36, N-(cyclohexyl(3-(trifluoromethyl)phenyl)methyl)-4-(trifluoromethoxy)benzenesulfonamide]
24 | 29 | CN(C)CC1(CNS(=O)(=O)c2ccc(OC(F)(F)F)cc2)CC1 [Compound 98, N-((1-((dimethylamino)methyl)cyclopropyl)methyl)-4-(trifluoromethoxy)benzenesulfonamide]
25 | 28.9 | CC(C)CC(NS(=O)(=O)c1ccc(OC(F)(F)F)cc1)c1cccc(C#N)c1 (stereo not shown) [Compound 26, N-(1-(3-cyanophenyl)-3-methylbutyl)-4-(trifluoromethoxy)benzenesulfonamide]
26 | 28.2 | CN(C)CC(NS(=O)(=O)c1ccc(C2CCCCO2)cc1)c1ccc(Cl)c(Cl)c1 (stereo not shown) [Compound 239, N-(1-(3,4-dichlorophenyl)-2-(dimethylamino)ethyl)-4-(tetrahydro-2H-pyran-2-yl)benzenesulfonamide]
27 | 24.1 | CNCC(NS(=O)(=O)c1ccc(OC(F)(F)F)cc1)c1ccc(Cl)c(Cl)c1 (stereo not shown) [Compound 242, N-(1-(3,4-dichlorophenyl)-2-(methylamino)ethyl)-4-(trifluoromethoxy)benzenesulfonamide]
28 | 21.8 | CN(C)CC(NS(=O)(=O)c1ccc(OCC2CC2)cc1)c1ccc(Cl)c(Cl)c1 (stereo not shown) [Compound 207, 4-(cyclopropylmethoxy)-N-(1-(3,4-dichlorophenyl)-2-(dimethylamino)ethyl)benzenesulfonamide]
29 | 21.1 | CN(C)CC(NS(=O)(=O)c1ccc(Oc2cccc(F)c2)cc1)c1ccc(Cl)c(Cl)c1 (stereo not shown) [Compound 220, N-(1-(3,4-dichlorophenyl)-2-(dimethylamino)ethyl)-4-(3-fluorophenoxy)benzenesulfonamide]
30 | 20 | CC(C)(C)OC(=O)N1CC(CNS(=O)(=O)c2ccc(OC(F)(F)F)cc2)OC(C)(C)C1 (stereo not shown) [Compound 77, Tert-butyl 2,2-dimethyl-6-(((4-(trifluoromethoxy)phenyl)sulfonamido)methyl)morpholine-4-carboxylate]
31 | 19.5 | CN(C)CC(NS(=O)(=O)c1ccc(OC(F)(F)F)cc1)c1ccc(Cl)c(Cl)c1 (stereo not shown) [Compound 147, N-(1-(3,4-dichlorophenyl)-2-(dimethylamino)ethyl)-4-(trifluoromethoxy)benzenesulfonamide]
32 | 14 | Cc1ccccc1C(NS(=O)(=O)c1ccc(OC(F)(F)F)cc1)C1CCCC(C)C1 (stereo not shown) [Compound 102, N-((3-methylcyclohexyl)(o-tolyl)methyl)-4-(trifluoromethoxy)benzenesulfonamide]
33 | 12.7 | CN(C)CC(NS(=O)(=O)c1ccc(OC(F)(F)F)cc1)c1ccc(Cl)c(Cl)c1 (single isomer, unassigned) [Compound 148, N-(1-(3,4-dichlorophenyl)-2-(dimethylamino)ethyl)-4-(trifluoromethoxy)benzenesulfonamide]
34 | 12.1 | CN1CCN(CC(NS(=O)(=O)c2ccc(Oc3ccccc3)cc2)c2ccc(Cl)cc2)CC1 (stereo not shown) [Compound 234, N-(1-(4-chlorophenyl)-2-(4-methylpiperazin-1-yl)ethyl)-4-phenoxybenzenesulfonamide]
35 | 11.1 | CN(C)CC(NS(=O)(=O)c1ccc(OC2CCCCC2)cc1)c1ccc(Cl)c(Cl)c1 (stereo not shown) [Compound 209]
36 | 10.2 | CN(C)CC(NS(=O)(=O)c1ccc(Oc2ccc(C(F)(F)F)cc2)cc1)c1ccc(Cl)c(Cl)c1 (stereo not shown) [Compound 139, N-(1-(3,4-dichlorophenyl)-2-(dimethylamino)ethyl)-4-(4-(trifluoromethyl)phenoxy)benzenesulfonamide]

same assay, conditions: LNCaP cell line, 48 hours

Row | GI50 [µM] | SMILES
37 | 15.9 | CN(C)CC(NS(=O)(=O)c1ccc(-c2ccccc2)cc1)c1ccc(Cl)c(Cl)c1 (single isomer, unassigned) [Compound 196, N-(1-(3,4-dichlorophenyl)-2-(dimethylamino)ethyl)-[1,1′-biphenyl]-4-sulfonamide]

Reference: patent US20240174603A1 (Rappta Therapeutics Oy, priority 2021, published 2024)
